Source: US8129544B2, “1-substituted-4-nitroimidazole compound and method for preparing the same” (Otsuka Pharmaceutical Co., Ltd., priority 2002, dated 2012)
Converted amounts (≈) assume the structure as drawn.

Assays:
[1] = tested on: Mycobacterium tuberculosis H37RV; test: Antibiotic test by using an agar plate dilution method; assay type: cell-based; conditions: 336 h, Culture medium 7H11, inoculum about 10^6 CFU/ml (5 μl), cultivated at 37° C. for 14 days, read-out: Minimum inhibitory concentration

melting point | Structure (SMILES) | MIC [1]
93 to 94 °C | C[C@]1(Cn2cc([N+](=O)[O-])nc2Br)CO1 | –
65.5 to 67 °C | C[C@]1(Cn2cc([N+](=O)[O-])nc2Cl)CO1 | –
93 to 94 °C | C[C@@]1(Cn2cc([N+](=O)[O-])nc2Br)CO1 | –

Structure (SMILES) | melting point | MIC [1]
C[C@]1(CN2CCN(c3ccc(OC(F)(F)F)cc3)CC2)Cn2cc([N+](=O)[O-])nc2O1 [Reference Example 7, (S)-2-[4-(4-trifluoromethoxyphenyl)piperazin-1-ylmethyl]-2-methyl-6-nitro-2,3-dihydroimidazo[2,1-b]oxazole] | 129 to 130 °C | 0.024 µg/mL (≈ 0.0562 µM)
